This note sets out measurements from patent US20240199587A1, “HETEROCYCLIC COMPOUNDS” (Hoffmann-La Roche Inc., priority 2021, published 2024).

For the assay, the target named is T1, MAGL (Homo sapiens, UniProt Q99685).
T1 sequence (Q99685 1-303): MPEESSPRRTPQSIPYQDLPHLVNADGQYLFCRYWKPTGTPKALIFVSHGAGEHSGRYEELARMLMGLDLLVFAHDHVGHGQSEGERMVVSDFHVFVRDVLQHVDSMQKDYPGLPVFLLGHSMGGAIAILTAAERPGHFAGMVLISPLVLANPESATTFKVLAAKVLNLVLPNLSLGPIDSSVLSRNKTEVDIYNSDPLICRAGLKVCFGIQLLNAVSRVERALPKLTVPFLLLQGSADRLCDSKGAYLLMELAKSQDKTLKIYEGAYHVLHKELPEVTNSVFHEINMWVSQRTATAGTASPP
The assay can be described thus: 2-AG assay (MAGL inhibitory activity, hydrolysis of 2-arachidonoylglycerol to arachidonic acid followed by mass spectrometry). The note with it: 8 μM 2-arachidonoylglycerol, 15 min pre-incubation, 30 min incubation at RT, RapidFire MS readout. The assay is classed as biochemical. Summed up: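 Arachidonic acid released from 8 μM 2-arachidonoylglycerol was quantified by online SPE triple-quadrupole MS (negative ESI, 303.1→259.1), normalised to d8-arachidonic acid internal standard. Reaction ran 30 min at RT after 15 min RT compound pre-incubation with […] MAGL in TRIS/EDTA/Tween-20 buffer, 2.5% DMSO.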
With `O=C(N1CC(OCc2ccc(F)cc2C(F)(F)F)C1)N1CC2(CC(n3cnc(C4CC4)n3)C2)C1` [Example 78, (6-(3-cyclopropyl-1H-1,2,4-triazol-1-yl)-2-azaspiro[3.3]heptan-2-yl)(3-((4-fluoro-2-(trifluoromethyl)benzyl)oxy)azetidin-1-yl)methanone], half-maximal inhibition (IC50) was put at 12.2 nM.
Take `O=C(N1CC2(CC(Oc3cc(F)ccc3F)C2)C1)N1CC2(CC(n3cnc(C4CC4)n3)C2)C1` [Example 79, (6-(3-cyclopropyl-1H-1,2,4-triazol-1-yl)-2-azaspiro[3.3]heptan-2-yl)(6-(2,5-difluorophenoxy)-2-azaspiro[3.3]heptan-2-yl)methanone]: the IC50 was found to be 1.3 nM.
`O=C(N1CC2(CC(Oc3ccc(C(F)(F)F)nc3)C2)C1)N1CC2(CC(n3cnc(C4CC4)n3)C2)C1` [Example 80, (6-(3-cyclopropyl-1H-1,2,4-triazol-1-yl)-2-azaspiro[3.3]heptan-2-yl)(6-((6-(trifluoromethyl)pyridin-3-yl)oxy)-2-azaspiro[3.3]heptan-2-yl)methanone] returned an IC50 of 2.2 nM.
Take `O=C(N1CC2(CC(Oc3cncc(C(F)(F)F)c3)C2)C1)N1CC2(CC(n3cnc(C4CC4)n3)C2)C1` [Example 81, (6-(3-cyclopropyl-1H-1,2,4-triazol-1-yl)-2-azaspiro[3.3]heptan-2-yl)(6-((5-(trifluoromethyl)pyridin-3-yl)oxy)-2-azaspiro[3.3]heptan-2-yl)methanone]: half-maximal inhibition (IC50) was put at 1.8 nM.
With `O=C(N1CC2(CC(Oc3cncc(Cl)c3)C2)C1)N1CC2(CC(n3cnc(C4CC4)n3)C2)C1` [Example 82, (6-((5-chloropyridin-3-yl)oxy)-2-azaspiro[3.3]heptan-2-yl)(6-(3-cyclopropyl-1H-1,2,4-triazol-1-yl)-2-azaspiro[3.3]heptan-2-yl)methanone], half-maximal inhibition (IC50) was put at 3.7 nM.
As to `O=C(N1CC2(CC(Oc3ccc(Cl)nc3)C2)C1)N1CC2(CC(n3cnc(C4CC4)n3)C2)C1` [Example 83, (6-((6-chloropyridin-3-yl)oxy)-2-azaspiro[3.3]heptan-2-yl)(6-(3-cyclopropyl-1H-1,2,4-triazol-1-yl)-2-azaspiro[3.3]heptan-2-yl)methanone], half-maximal inhibition (IC50) was put at 5.2 nM.
In turn, `O=C(N1CC(c2ccc(OC(F)(F)F)cc2Cl)C1)N1CC2(CC(n3cnc(C4CC4)n3)C2)C1` [Example 84, [3-[2-chloro-4-(trifluoromethoxy)phenyl]azetidin-1-yl]−[6-(3-cyclopropyl-1,2,4-triazol-1-yl)-2-azaspiro[3.3]heptan-2-yl]methanone] came in with a 50% inhibitory concentration (IC50) of 0.6 nM.
As for `O=C(N1CC(c2cc(F)c(OC(F)(F)F)c(F)c2)C1)N1CC2(CC(n3cnc(C4CC4)n3)C2)C1` [Example 85, [6-(3-cyclopropyl-1,2,4-triazol-1-yl)-2-azaspiro[3.3]heptan-2-yl]-[3-[3,5-difluoro-4-(trifluoromethoxy)phenyl]azetidin-1-yl]methanone], the figure is 0.4 nM; as for `O=C(N1CC(c2ccc(OC(F)(F)F)cc2F)C1)N1CC2(CC(n3cnc(C4CC4)n3)C2)C1` [Example 86, [6-(3-cyclopropyl-1,2,4-triazol-1-yl)-2-azaspiro[3.3]heptan-2-yl]-[3-[2-fluoro-4-(trifluoromethoxy)phenyl]azetidin-1-yl]methanone], 0.4 nM; as for `CC(C)(C)c1nc(C2CN(C(=O)N3CC4(CC(n5cnc(C6CC6)n5)C4)C3)C2)cs1` [Example 87, [3-(2-tert-butylthiazol-4-yl)azetidin-1-yl]-[6-(3-cyclopropyl-1,2,4-triazol-1-yl)-2-azaspiro[3.3]heptan-2-yl]methanone], 6.5 nM.
For `CC(C)(C)Cc1nc(-c2ccc(C(=O)N3CC4(CC(n5cnc(C6CC6)n5)C4)C3)cc2)no1` [Example 88, [6-(3-cyclopropyl-1,2,4-triazol-1-yl)-2-azaspiro[3.3]heptan-2-yl]−[4-[5-(2,2-dimethylpropyl)-1,2,4-oxadiazol-3-yl]phenyl]methanone], the IC50 came to 1.1 nM.
`CC(C)(C)c1nc(-c2ccc(C(=O)N3CC4(CC(n5cnc(C6CCC6)n5)C4)C3)cc2)no1` [Example 90, [4-(5-tert-butyl-1,2,4-oxadiazol-3-yl)phenyl]−[6-(3-cyclobutyl-1,2,4-triazol-1-yl)-2-azaspiro[3.3]heptan-2-yl]methanone] had an IC50 of 4 nM.
In the case of `O=C(N1CC(C#Cc2ccc(OC(F)F)cc2)C1)N1CC2(CC(n3cnc(C4CC4)n3)C2)C1` [Example 92, [6-(3-cyclopropyl-1,2,4-triazol-1-yl)-2-azaspiro[3.3]heptan-2-yl]-[3-[2-[4-(difluoromethoxy)phenyl]ethynyl]azetidin-1-yl]methanone], the midpoint of inhibition, the IC50, lay at 11.7 nM.
The compound `O=C(N1CC(Oc2cccc(C3CC3)c2Cl)C1)N1CC2(CC(n3cnc(C4CC4)n3)C2)C1` [Example 94, (3-(2-chloro-3-cyclopropylphenoxy)azetidin-1-yl)(6-(3-cyclopropyl-1H-1,2,4-triazol-1-yl)-2-azaspiro[3.3]heptan-2-yl)methanone] showed an IC50 of 0.2 nM.
Turning to `O=C(N1CC(Oc2ccc(Cl)c(C3CC3)c2)C1)N1CC2(CC(n3cnc(C4CC4)n3)C2)C1` [Example 95, (3-(4-chloro-3-cyclopropylphenoxy)azetidin-1-yl)(6-(3-cyclopropyl-1H-1,2,4-triazol-1-yl)-2-azaspiro[3.3]heptan-2-yl)methanone], it took 1.2 nM to reach half-maximal inhibition (IC50).
Compound `O=C(N1CC(Oc2ccc(C(F)(F)F)cc2F)C1)N1CC2(CC(n3cnc(C4CC4)n3)C2)C1` [Example 96, (6-(3-cyclopropyl-1H-1,2,4-triazol-1-yl)-2-azaspiro[3.3]heptan-2-yl)(3-(2-fluoro-4-(trifluoromethyl)phenoxy)azetidin-1-yl)methanone] showed an IC50 of 2.7 nM.
`Cc1ccc(OC2CN(C(=O)N3CC4(CC(n5cnc(C6CC6)n5)C4)C3)C2)c(Cl)c1` [Example 97, (3-(2-chloro-4-methylphenoxy)azetidin-1-yl)(6-(3-cyclopropyl-1H-1,2,4-triazol-1-yl)-2-azaspiro[3.3]heptan-2-yl)methanone] returned an IC50 of 3.4 nM.
`O=C(N1CC(Oc2ccc(Cl)cc2Cl)C1)N1CC2(CC(n3cnc(C4CC4)n3)C2)C1` [Example 98, (6-(3-cyclopropyl-1H-1,2,4-triazol-1-yl)-2-azaspiro[3.3]heptan-2-yl)(3-(2,4-dichlorophenoxy)azetidin-1-yl)methanone] came in with an IC50 of 2.8 nM.
As to `O=C(N1CC(Oc2ccc(Cl)cc2F)C1)N1CC2(CC(n3cnc(C4CC4)n3)C2)C1` [Example 99, (3-(4-chloro-2-fluorophenoxy)azetidin-1-yl)(6-(3-cyclopropyl-1H-1,2,4-triazol-1-yl)-2-azaspiro[3.3]heptan-2-yl)methanone], the 50% inhibitory concentration (IC50) worked out at 9.5 nM.
The result for `Cc1ccc(OC2CN(C(=O)N3CC4(CC(n5cnc(C6CC6)n5)C4)C3)C2)c(Cl)n1` [Example 100, (3-((2-chloro-6-methylpyridin-3-yl)oxy)azetidin-1-yl)(6-(3-cyclopropyl-1H-1,2,4-triazol-1-yl)-2-azaspiro[3.3]heptan-2-yl)methanone] reads 79.9 nM; that for `O=C(N1CC(OCc2ccc(C(F)(F)F)cc2)C1)N1CC2(CC(n3cnc(C4CC4)c3)C2)C1` [Example 101, [6-(4-cyclopropylimidazol-1-yl)-2-azaspiro[3.3]heptan-2-yl]-[3-[[4-(trifluoromethyl)phenyl]methoxy]azetidin-1-yl]methanone], 42.1 nM.
`O=C(N1CC(OCc2ccc(C(F)(F)F)cc2F)C1)N1CC2(CC(n3cnc(C4CC4)c3)C2)C1` [Example 102, [6-(4-cyclopropylimidazol-1-yl)-2-azaspiro[3.3]heptan-2-yl]-[3-[[2-fluoro-4-(trifluoromethyl)phenyl]methoxy]azetidin-1-yl]methanone] gave an IC50 of 51.4 nM.
The compound `O=C(N1CC(OCc2ccc(C(F)(F)F)c(F)c2)C1)N1CC2(CC(n3cnc(C4CC4)c3)C2)C1` [Example 103, [6-(4-cyclopropylimidazol-1-yl)-2-azaspiro[3.3]heptan-2-yl]-[3-[[3-fluoro-4-(trifluoromethyl)phenyl]methoxy]azetidin-1-yl]methanone] showed an IC50 of 9.9 nM.
With `O=C(N1CC(OCc2ccc(S(F)(F)(F)(F)F)cc2)C1)N1CC2(CC(n3cnc(C4CC4)c3)C2)C1` [Example 104, [6-(4-cyclopropylimidazol-1-yl)-2-azaspiro[3.3]heptan-2-yl]-[3-[[4-(pentafluoro-λ^6-sulfanyl)phenyl]methoxy]azetidin-1-yl]methanone], half-maximal inhibition (IC50) required 9.7 nM.
`O=C(N1CC(OCc2ccc(S(F)(F)(F)(F)F)cc2F)C1)N1CC2(CC(n3cnc(C4CC4)c3)C2)C1` [Example 105, [6-(4-cyclopropylimidazol-1-yl)-2-azaspiro[3.3]heptan-2-yl]-[3-[[2-fluoro-4-(pentafluoro-λ^6-sulfanyl)phenyl]methoxy]azetidin-1-yl]methanone] displayed an IC50 of 3.9 nM.
`Cc1ccc(COC2CN(C(=O)N3CC4(CC(n5cnc(C6CC6)c5)C4)C3)C2)cc1C(F)(F)F` [Example 106, [6-(4-cyclopropylimidazol-1-yl)-2-azaspiro[3.3]heptan-2-yl]-[3-[[4-methyl-3-(trifluoromethyl)phenyl]methoxy]azetidin-1-yl]methanone] returned an IC50 of 4.1 nM.
The result for `O=C(N1CC(C#Cc2ccccc2C(F)F)C1)N1CC2(CC(n3cnc(C4CC4)n3)C2)C1` [Example 107, [6-(3-cyclopropyl-1,2,4-triazol-1-yl)-2-azaspiro[3.3]heptan-2-yl]-[3-[2-[2-(difluoromethyl)phenyl]ethynyl]azetidin-1-yl]methanone] reads 4.7 nM.

In general, IC50 refers to the point on the concentration scale where inhibition reaches its midpoint.
